# Read-outs that look alike come from different tables or passages of the source.
# Experiments:
# [1] = biological target: T1, rhGal3 binding onto A549 cells (Homo sapiens, UniProt P17931); test: Flow cytometry of rhGal3 binding to A549 cells and its inhibition; type: cell-based
# T1 construct: made in house; host or cells: Escherichia coli BL21 (DE3)
# [2] = test system: SOCS1, SOCS3, SOCS4 expression in A549 cells; test: SOCS expression in A549 cells incubated with rhGal3 with or without TDG (quantitative realtime PCR); type: cell-based, human
# Experimental: A549 cells were grown in 12-well plates and incubated with 0˜30 μg/ml of rhGal3 for 1 hour. After washing, RNA was extracted from the cells and subjected to reverse-transcription, followed by quantitative realtime PCR with designed primers for SOCS1, SOCS3, SOCS4, and beta-actin. Ct values were calculated and the relative expression level was calculated as 2^(Ct actin−Ct target).
# [3] = biological target: T2, recombinant human Gal3 (Homo sapiens, UniProt P17931); test: Inhibition of hGal3 binding to asialofetuin (microtiter plate); conditions: biotinylated rhGal3 5 ug/ml pre-mixed with inhibitor; TDG 5 mM; Lac 50 mM; FIG. 12
# T2 construct: made in house; host or cells: Escherichia coli BL21 (DE3)
# T2 sequence (P17931 whole entry): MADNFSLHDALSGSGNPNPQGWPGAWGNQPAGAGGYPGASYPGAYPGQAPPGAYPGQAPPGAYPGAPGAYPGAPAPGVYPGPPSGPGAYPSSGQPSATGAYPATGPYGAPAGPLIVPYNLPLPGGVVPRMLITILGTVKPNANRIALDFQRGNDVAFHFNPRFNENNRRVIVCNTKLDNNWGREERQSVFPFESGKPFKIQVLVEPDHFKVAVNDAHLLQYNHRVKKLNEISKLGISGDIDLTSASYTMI
# Experimental: Ninety-six well microtiter plates were coated with 1 ug/well of asialofetuin (10 μg/ml in PBS, 100 ul each well) for 3 h at 37° C., washed and blocked with 3% BSA in PBS overnight at 4° C. […] The reaction was stopped with 1 M HCl and the optical density (OD) at 450 nm from each well was measured by SpectraMax 340 plate reader (Molecular Device).
# [4] = test system: SOCS1; type: cell-based, human; conditions: 15 μg/ml, 1 h
# [5] = test system: ERK, AKT, p38 MAPK, STAT1 and NF-κB phosphorylation in A549 cells; type: cell-based, human
# [6] = test system: A549 cells; type: cell-based, human; conditions: for extracellular cytokine levels: A549 cells, treatment alone vs untreated cells, FIG. 7
# [7] = test system: RIG1; type: cell-based, human
# [8] = hGal3 10 μg/ml pre-mixed with 0~10 mM disaccharide
# [9] = NeuK-treated A549 cells, 15 μg/ml
# [10] = A549 cells pre-exposed to NeuK, 15 μg/ml
# [11] = A549 cells, treatment alone, vs control
# T1 sequence (P17931 whole entry): as above
molecule,measurement,setting,value
"OC[C@H]1O[C@@H](S[C@@H]2O[C@H](CO)[C@H](O)[C@H](O)[C@H]2O)[C@H](O)[C@@H](O)[C@H]1O [TDG, thiodigalactoside]",inhibition of hGal3 binding onto A549 cells (MFI),[1]; [8],inhibit the binding
same,inhibition of hGal3 binding onto A549 cells (MFI),"[1]; hGal3 pre-mixed with Lac 50 mM, TDG 50 mM or 10 mM",inhibit binding well
same,"SOCS expression (SOCS1, SOCS3, SOCS4)","[2]; 30 μg rhGal3 pre-mixed with TDG 50 mM, one hour, FIG. 17",offset all the galectin's effect in suppressing SOCS expression
same,SOCS expression,"[2]; disaccharide (TDG 50 mM) alone, one hour",some positive effect in SOCS expression
same,inhibition of rhGal3 binding to asialofetuin (OD 450 nm),[3],partially inhibit
"CC(=O)N[C@H]1C(O)O[C@H](CO)[C@H](O)[C@@H]1O[C@@H]1O[C@H](CO)[C@H](O)[C@H](O)[C@H]1O (stereo partly shown) [TF disaccharides, Galβ1,3GalNAc]",inhibition of hGal3 binding onto A549 cells (MFI),[1]; [8],inhibit the binding
rhGal1: recombinant human galectin-1,SOCS1 expression,[4]; A549 cells pre-treated with NeuK,returned to the control levels
same,"SOCS1 expression, decrease",[4]; untreated A549 cells,20-30%
same,phosphorylation level of ERK,[5]; [9],increased
same,phosphorylation level of STAT1,[5]; [9],increased
same,phosphorylation level of p38,[5]; [9],remained at the level of the NeuK-treated A549 control
same,"phosphorylation level of AKT, decreased to","[5]; untreated A549 cells, 15 μg/ml",50 % of the control level
same,"IL-6 level in culture supernatant, increase",[6]; [10],4 fold
same,"IL-8 level in culture supernatant, increase",[6]; [10],5 fold
same,"IL-15 level in culture supernatant, increase",[6]; [10],25 fold
same,extracellular cytokine levels,[6],"the levels of IFNγ, IL-6, IL-8, and IL-10 increased"
same,"RIG1 expression, increase","[7]; NeuK-pretreated A549 cells, 15 μg/ml",about 12 fold
same,"RIG1 expression, decreased to","[7]; exposure alone, A549 cells, 15 μg/ml",about 50 % of the unexposed control
rhGal3: recombinant human galectin-3,"SOCS1 expression, downregulated",[4]; untreated or NeuK-treated A549 cells,60-70 % of the control levels
same,phosphorylation level of AKT,[5]; [11],up to 4 fold
same,phosphorylation level of ERK,[5]; [11],increased
same,phosphorylation level of STAT1,[5]; [11],increased
same,phosphorylation level of p38,[5]; [11],remained unchanged
same,"phosphorylation of p38, decrease",[5]; NeuK-treated A549 cells compared with effect on untreated cells,more than 50%
same,phosphorylation level of AKT,[5]; [9],1.5 fold
same,phosphorylation level of ERK,[5]; [9],3 fold
same,"IL-1β, IL-10 and IL-12 levels in culture supernatant",[6]; [10],had no effect
same,"IL-6 level in culture supernatant, increase",[6]; [10],8 fold
same,"IL-8 level in culture supernatant, increase",[6]; [10],15 fold
same,"IL-15 level in culture supernatant, increase",[6]; [10],20 fold
same,extracellular cytokine levels,[6],"increased levels of IFNγ, TNFα, IL-10, IL-6, and IL-8"
same,"SOCS expression (SOCS1, SOCS3, SOCS4)","[2]; 0~30 μg/ml rhGal3, 1 hour, FIG. 16",suppress SOCS expression in dose-dependent manner
same,"RIG1 expression, downregulated to","[7]; NeuK treatment followed by exposure, 15 μg/ml",about 20 % of the unexposed controls
same,"RIG1 expression, increase","[7]; treatment alone, A549 cells",about 4 fold

# Reference: US10905702B2 (priority 2016, dated 2021)
